Laboratory results: patent US9518018B2, “3-alkoxy, thioalkyl and amino-4-amino-6-(substituted)picolinates and their use as herbicides” (Dow AgroSciences LLC, priority 2011, dated 2016)

Tested on: LIDDU = Lindernia dubia (L.) PENNELL (low falsepimpernel)
Assay: In-water applied herbicidal activity in transplanted paddy rice
Type: in vivo
Details: 21 DAA
Protocol: Rice seeds were planted in Sun Gro MetroMix 306 planting mixture, which typically has a pH of 6.0 to 6.8 and an organic matter content of about 30 percent, in plastic plug trays. Seedlings at the second or third leaf stage of growth were transplanted into 650 mL of mud contained in 960 mL non-perforated plastic pots with a surface area of 86.59 cm^2 four days prior to herbicide application. The paddy was created by filling the 2.5 to 3 cm headspace of the pots with water. When required to ensure good germination and healthy plants, a fungicide treatment and/or other chemical or physical treatment was applied. The plants were grown for 4-14 d in a greenhouse with an approximate 14-h photoperiod which was maintained at about 29° C. during the day and 26° C. during the night. Nutrients were added as Osmocote (17:6:10, Nitrogen:Phosphorus:Potassium (N:P:K)+minor nutrients) at 2 grams (g) per cup. Water was added on a regular basis to maintain the paddy flood, and supplemental lighting was provided with overhead metal halide 1000-Watt lamps as necessary. The plants were employed for testing when they reached the second or third true leaf stage. Treatments consisted of compounds 45, 34, and 66. For technical grade compounds, a weighed amount, determined by the highest rate to be tested, was placed in an individual 120 mL glass vial and was dissolved in 20 mL of acetone to obtain concentrated stock solutions. […] The concentrated stock solutions obtained were diluted with 20 mL of an aqueous mixture containing 2.5% Agri-dex crop oil concentrate (v/v). Applications were made by injecting an appropriate amount of the stock solution into the aqueous layer of the paddy. Control plants were treated in the same manner with the solvent blank. All treated plant material received the same concentration of acetone and crop oil concentrate. The treated plants and control plants were placed in a greenhouse as described above and water was added as needed to maintain a paddy flood. After approximately 3 weeks, the condition of the test plants, compared with that of the untreated plants, was determined visually and scored on a scale of 0 to 100 percent where 0 corresponds to no injury and 100 corresponds to complete kill. By applying the well-accepted probit analysis as described by J. Berkson in Journal of the […], 48, 565 (1953) and by D. Finney in “Probit Analysis” Cambridge University Press (1952) or by plotting the mean data and fitting a logarithmic curve to the portion of the data where there was a dose response using Microsoft Excel®, the above data can be used to calculate GR50 and GR90 values, which are defined as growth reduction factors that correspond to the effective dose of herbicide required to kill or control 50 percent or 90 percent, respectively, of a target plant.

## COc1c(C(=O)OCc2ccccc2)nc(-c2ccc(Cl)c(OC)c2F)c(F)c1N [Compound 66, benzyl 4-amino-6-(4-chloro-2-fluoro-3-methoxyphenyl)-5-fluoro-3-methoxypicolinate]
2.19 g ae/ha
  Mean Visual Injury (%)-21 Days After Application LIDDU: 0%
4.38 g ae/ha
  Mean Visual Injury (%)-21 Days After Application LIDDU: 100%
8.75 g ae/ha
  Mean Visual Injury (%)-21 Days After Application LIDDU: 100%
17.5 g ae/ha
  Mean Visual Injury (%)-21 Days After Application LIDDU: 100%
35 g ae/ha
  Mean Visual Injury (%)-21 Days After Application LIDDU: 100%
70 g ae/ha
  Mean Visual Injury (%)-21 Days After Application LIDDU: 100%
Dose to kill or control 50 percent
  GR50 LIDDU: <4.38 g ae/ha
Dose to kill or control 90 percent
  GR90 LIDDU: <4.38 g ae/ha
